Experimental data from EP4595972A1, “PEPTIDE FOR TREATING OR PREVENTING 4R TAUOPATHY” (GemVax & KAEL Co., Ltd., priority 2022, dated 2024).

How the values were obtained:
[1] = system: total tau (Tau5); test: Tau immunoblot of brain lysate, insoluble fraction, total tau; format: in vivo, mouse; conditions: LMTM 15 mg/kg oral vs. vehicle; decrease (in parentheses)
Procedure: • (1) Pellets remaining after moving the supernatant (soluble fraction) were dispersed in 1 mL of 1M sucrose, DNase I (conc. 1 mg/mL) in RIPA buffer. • (2) After centrifugation at 4°C with a speed of 13,000 rpm for 20 minutes, the supernatant was removed. • (3) After resuspension of pellets in 2% SDS solution (1 mL per gram of tissue), the mixture was subjected to incubation at room temperature for 1 hour. • (4) After centrifugation at room temperature with a speed of 13,000 rpm for 1 minute, the supernatant (insoluble fraction) was collected and moved to a new ep-tube, and the same amount of 2X SDS Laemmli sample buffer (w/ 2.5% β-mercaptoethanol for reducing condition) was added thereto. • (5) The sample was boiled at 97°C for 5 minutes. […]

[2] = system: AT8 (phospho-Tau S202/T205); test: AT8 immunofluorescent staining of brain tissues (tau hyperphosphorylation); format: in vivo, mouse
Description: • 1) Experimental method for brain tissue sampling • (1) On day 1, after completing 63 times administration schedule, the mice of TauP301L-BiFC mouse model were anesthetized, followed by preparing heart laparotomy. • (2) Saline was introduced into the heart of each mouse in the TauP301L-BiFC mouse model, followed by removing vivo blood using a perfusion pump machine. • (3) The brain of the mouse was extracted and weighed. • (4) The brain to be used for tissue staining experiment was immersed in 4% FPA solution and fixed for 24 hours. • (5) On day 2, after completing fixation, the brain tissues were immersed in 20% sucrose solution to remove water for 24 hours. • (6) On day 3, the brain tissues were immersed in 30% sucrose solution to remove water for 48 hours. • (7) On day 5, the brain tissues free of water were taken and extra moisture was removed. Then, the brain tissues and a frozen tissue embedding agent (OCT compound) were placed in a prepared mold, followed by freezing the brain tissues as fast as possible while protecting the tissues. The frozen brain tissue-containing mold was stored in a defreezer at -80°C. Thereafter, using a cryostat for frozen fragment, the tissues were cut into a unit thickness of 30 µm and stored in 0.05% sodium azide solution.
• (1) On day 1, a brain tissue sample having a thickness of 30 µm under cryosection was selected for each brain region, immersed in PBS solution, and then washed three times for 10 minutes. • (3) The sample was fixed in 3.7% formaldehyde for 5 minutes. • (4) The sample was washed in PBS solution three times for 10 minutes. • (5) The brain tissue sample was subjected to permeabilization in 0.3% PBS-T solution. • (6) The sample was immersed in 5% BSA in PBS solution for 1 hour for blocking. • (7) The brain tissues were input into 3% BSA in which primary antibody (AT8) was diluted at a ratio of 1:200, 0.1% Tween-20 in PBS solution, followed by overnight (O/N) binding. • (8) On day 2, the brain tissues were immersed in PBS solution, and washed three times for 10 minutes. • (9) The brain tissues were input into 3% BSA in which secondary antibody was diluted at a ratio of 1:500, 0.1% Tween-20 in PBS solution, followed by binding at room temperature for 1 hour. • (10) The brain tissues were immersed in PBS solution, and washed once for 10 minutes. • (11) The brain tissues were immersed in Hoechst (stock conc., 1mg/mL) diluted at a ratio of 1:2000 in PBS solution, followed by nuclei staining. • (12) The brain tissues were immersed in PBS solution, and washed three times for 10 minutes. • (13) Brain tissue fluorescent imaging was performed using a slide scanner.
• (1) In order to obtain fluorescent images of the stained brain tissues, a brain tissue slide was scanned using Zeiss Axio Scan (Zeiss, Oberkochen, Germany). • BiFC fluorescence: λex=460-490 nm, λem=500-550 nm • AT8 fluorescence: λex=620-640 nm, λem=650-700 nm • Hoechst fluorescence: λex=330-375 nm, λem=430-470 nm • (3) For brain tissues per site obtained through imaging, fluorescent value was calculated through Image J software (NIH).

[3] = LMTM 15 mg/kg oral vs. vehicle, decrease (in parentheses)
[4] = LMTM 15 mg/kg oral vs. vehicle, decrease (in parentheses), *p<0.05

With CN(C)c1ccc2c(c1)Sc1cc(N(C)C)ccc1N2.CS(=O)(=O)O.CS(=O)(=O)O [LMTM] the “Insoluble fraction, Total tau” value [1] was “(42%)”, the “AT8 fluorescent level, Somatosensory cortex” value [2, 3] was “(31 %)” and the “AT8 fluorescent level, Substantia nigra” value [2, 3] was “(16 %)”. The “AT8 fluorescent level, Hippocampus” value [2, 4] was “(28 %)*”, the “AT8 fluorescent level, Motor cortex” value [2, 4] was “(26 %)*” and the “AT8 fluorescent level as compared to the vehicle group, in words” value ([2]; LMTM 15 mpk) was “significantly reduced in the somatosensory cortex, motor cortex and hippocampus regions”.
